Measurements from the supplement of paper PMC10307832.

Assays:
Experiment in all cases: relative viability (nuclei count vs DMSO), 5 days (fraction); higher = more cells survive
[1] = compound: C1CNCCC1C2=CC(=NN2)C3=CC=NC=C3 + Nc1nc2[nH]cc(CCc3ccc(C(=O)N[C@@H](CCC(=O)O)C(=O)O)cc3)c2c(=O)[nH]1 [Pemetrexed] (partner 0.2 µM)
Outline: (§1)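 Lung cancer cell lines, seeded in 1536-well plates, were treated the following day by pin tool with a single drug or with five library-drug doses (not always all listed) in √10 steps on top of a fixed anchor-drug dose. Cells were fixed and nuclei stained in one step after 5 days, and nuclei were counted. Relative viability is the nuclei count for treated wells divided by that for vehicle wells, reported as medians of duplicate plates.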

[2] = compound: C[C@@H](N)c1ccc(C(=O)Nc2ccnc3[nH]ccc23)cc1 + NC(=O)Nc1cc(-c2cccc(F)c2)sc1C(=O)N[C@H]1CCCNC1 [AZD7762] (partner 0.2 µM)
Outline: as §1

Tanzisertib + Foretinib = compound: O[C@H]1CC[C@H](Nc2ncc3nc(Nc4c(F)cc(F)cc4F)n([C@H]4CCOC4)c3n2)CC1 [Tanzisertib] + COc1cc2c(Oc3ccc(NC(=O)C4(C(=O)Nc5ccc(F)cc5)CC4)cc3F)ccnc2cc1OCCCN1CCOCC1 [Foretinib] (partner 0.25 µM)
Outline: as §1

Tanzisertib + Dasatinib = compound: O[C@H]1CC[C@H](Nc2ncc3nc(Nc4c(F)cc(F)cc4F)n([C@H]4CCOC4)c3n2)CC1 [Tanzisertib] + Cc1nc(Nc2ncc(C(=O)Nc3c(C)cccc3Cl)s2)cc(N2CCN(CCO)CC2)n1 [Dasatinib] (partner 0.075 µM)
Outline: as §1

Row | Cell Line | relative viability ([1]; first compound 0.08 µM) | relative viability ([1]; first compound 0.8 µM) | relative viability ([1]; first compound 2.53 µM) | relative viability ([1]; first compound 8 µM) | relative viability ([2]; first compound 0.04 µM) | relative viability ([2]; first compound 0.1265 µM) | relative viability ([2]; first compound 1.265 µM) | relative viability ([2]; first compound 4 µM) | relative viability (Tanzisertib + Foretinib; first compound 0.08 µM) | relative viability (Tanzisertib + Foretinib; first compound 0.253 µM) | relative viability (Tanzisertib + Foretinib; first compound 0.8 µM) | relative viability (Tanzisertib + Foretinib; first compound 2.53 µM) | relative viability (Tanzisertib + Foretinib; first compound 8 µM) | relative viability (Tanzisertib + Dasatinib; first compound 0.08 µM) | relative viability (Tanzisertib + Dasatinib; first compound 0.253 µM) | relative viability (Tanzisertib + Dasatinib; first compound 0.8 µM) | relative viability (Tanzisertib + Dasatinib; first compound 2.53 µM) | relative viability (Tanzisertib + Dasatinib; first compound 8 µM) | relative viability ([2]; first compound 0.4 µM)
1 | NCI-H1993 | 0.607 | 0.342 | 0.535 | 0.689 | 0.867 | 0.817 | 1.04 | 1.26 | 0.823 | 0.841 | 0.844 | 0.786 | 0.73 | 0.631 | 0.656 | 0.709 | 0.526 | 0.479 | –
2 | NCI-H1437 | 0.334 | 0.312 | 0.363 | 0.303 | 1.12 | 1.13 | 1.13 | 1.04 | 1.26 | 1.31 | 1.32 | 1.42 | 1.29 | 0.527 | 0.465 | 0.393 | 0.365 | 0.439 | 1.14
3 | NCI-H838 | 0.24 | 0.259 | 0.248 | 0.284 | 0.848 | 0.957 | 0.852 | 0.752 | 1.1 | 1.01 | 1.11 | 1.02 | 0.937 | 0.355 | 0.324 | 0.3 | 0.328 | 0.31 | 0.936
4 | NCI-H1666 | 0.788 | 0.804 | 0.873 | 0.909 | 0.824 | 0.953 | 1.12 | 0.98 | 0.957 | 0.96 | 0.978 | 1.01 | 0.976 | 0.821 | 0.843 | 0.755 | 0.841 | 0.955 | 1.13
5 | NCI-H1944 | 0.564 | 0.595 | 0.67 | 0.557 | 0.479 | 0.542 | 0.798 | 0.606 | 0.957 | 0.936 | 0.855 | 0.928 | 0.822 | 0.254 | 0.23 | 0.234 | 0.196 | 0.22 | 0.611
6 | NCI-H1755 | 0.475 | 0.439 | 0.433 | 0.329 | 0.408 | 0.46 | 0.362 | 0.397 | 0.913 | 0.931 | 0.882 | 0.891 | 0.878 | 0.408 | 0.46 | 0.488 | 0.464 | 0.333 | 0.451
7 | NCI-H23 | 0.719 | – | 0.808 | 0.818 | 0.268 | 0.169 | – | 0.539 | 1.01 | 1.07 | 0.996 | 0.952 | 1.02 | 0.918 | 0.814 | 0.726 | 0.694 | 0.51 | 0.372
8 | 201T | 0.349 | 0.384 | 0.332 | 0.352 | 0.644 | 0.678 | 1.01 | 0.783 | 1.2 | 1.08 | 1.12 | 1.11 | 0.978 | 0.546 | 0.608 | 0.537 | 0.496 | 0.582 | 0.668
9 | NCI-H1734 | 0.407 | 0.431 | 0.426 | 0.433 | 0.461 | 0.526 | 0.414 | 0.57 | 0.923 | 0.781 | 0.845 | 0.87 | 0.789 | 0.47 | 0.449 | 0.459 | 0.473 | 0.444 | 0.575
10 | NCI-H1355 | 1.09 | 1.08 | 1.07 | 1.02 | 0.761 | 0.819 | 0.91 | 0.871 | 1.03 | 0.961 | 0.965 | 1.04 | 0.948 | 0.757 | 0.757 | 0.78 | 0.628 | 0.707 | 0.901
11 | NCI-H1915 | 0.579 | 0.502 | 0.525 | 0.471 | – | 0.785 | – | 0.691 | 1.12 | 1.1 | 1.11 | 1.11 | 1.16 | 0.319 | 0.316 | 0.321 | 0.301 | 0.283 | 0.697
12 | BEN | 0.788 | 0.638 | 0.793 | 0.933 | 0.607 | 0.879 | 0.913 | 0.663 | 0.619 | 0.75 | 0.679 | 0.766 | 0.828 | 0.306 | 0.374 | 0.442 | 0.355 | 0.32 | 0.841
13 | NCI-H3122 | 0.193 | 0.212 | 0.197 | 0.202 | 1.13 | 0.982 | 1.06 | 0.955 | 1.1 | 0.951 | 1.03 | 0.99 | 1.01 | 0.775 | 0.817 | 0.791 | 0.92 | 0.926 | 1.06
14 | HOP-62 | 0.312 | 0.336 | 0.272 | 0.335 | 0.534 | 0.471 | 0.685 | 0.402 | 0.99 | 1.07 | 0.986 | 1.22 | 1.32 | 0.733 | 0.654 | 0.659 | 0.644 | 0.569 | 0.746
15 | HCC-366 | 0.212 | 0.193 | 0.146 | 0.173 | 0.174 | 0.32 | 0.588 | 0.359 | 0.917 | 0.918 | 0.922 | 0.975 | 0.917 | 0.81 | 0.606 | 0.629 | 0.62 | 0.542 | 0.434
16 | NCI-H2347 | 0.441 | 0.409 | 0.422 | 0.422 | 0.825 | 0.603 | 0.878 | 1.01 | 1.12 | 0.792 | 0.95 | 1.25 | 0.629 | 0.333 | – | 0.309 | 0.26 | 0.303 | 0.973
17 | LXF-289 | 0.936 | 0.967 | 0.856 | 0.814 | 1.07 | 1.09 | 1.26 | 0.934 | 1.02 | 1.01 | 1.06 | 0.989 | 1.03 | 0.233 | 0.202 | 0.222 | 0.212 | 0.215 | 1.23
18 | NCI-H1793 | 0.805 | – | 0.929 | 0.974 | 0.409 | 0.62 | – | 0.73 | 0.659 | 0.74 | 0.734 | 0.569 | 0.547 | 0.417 | 0.367 | 0.405 | 0.388 | 0.423 | 0.442
19 | LU99A | 0.218 | 0.181 | 0.153 | 0.337 | – | 0.354 | 0.511 | 0.771 | 0.828 | 0.81 | 0.798 | 0.765 | 0.837 | 0.585 | 0.629 | 0.556 | 0.557 | 0.496 | 0.467
20 | PC-14 | 0.107 | 0.134 | 0.138 | 0.131 | 0.251 | 0.347 | 0.313 | 0.469 | 1.05 | 0.983 | 0.933 | 0.951 | 0.61 | 0.341 | 0.238 | 0.306 | 0.234 | 0.116 | 0.364
21 | NCI-H2085 | 1.1 | – | 0.96 | 0.969 | 0.947 | 0.914 | 1.13 | 1.09 | 0.893 | 1.11 | 1.14 | 1.03 | 1.05 | 0.22 | 0.246 | 0.24 | 0.224 | 0.261 | 0.96
22 | NCI-H2170 | 0.269 | 0.283 | 0.288 | 0.266 | 0.972 | 0.935 | 0.827 | 0.832 | 1.02 | 1.01 | 0.954 | 1.06 | 0.984 | 0.625 | 0.586 | 0.574 | 0.568 | 0.512 | 1.05
23 | HCC-78 | 0.901 | – | 0.925 | 0.885 | 0.798 | 0.624 | 0.856 | 0.477 | 0.545 | 0.614 | 0.584 | 0.583 | 0.585 | 0.469 | 0.54 | 0.3 | 0.325 | 0.255 | 0.788
24 | NCI-H1395 | 0.782 | 0.803 | 1.03 | 0.861 | 0.396 | 0.391 | – | 0.39 | 1.06 | 0.941 | 0.96 | 0.945 | 0.966 | 0.439 | 0.428 | 0.406 | 0.437 | 0.375 | 0.395
25 | NCI-H2126 | 0.643 | 0.625 | 0.694 | 0.728 | 1.01 | 1.04 | 0.982 | 1.12 | 1.24 | 1.21 | 1.15 | 1.19 | 1.12 | 0.614 | 0.626 | 0.614 | 0.628 | 0.572 | 1.17
26 | H3255 | 0.578 | 0.629 | 0.638 | 0.623 | 0.929 | 1.07 | 1.07 | 0.724 | 0.729 | 0.77 | 0.831 | 0.841 | 0.696 | 0.426 | 0.499 | 0.306 | 0.345 | 0.344 | 1.11
27 | HCC-15 | 0.221 | 0.229 | 0.234 | 0.211 | 1.19 | 1.23 | 1.18 | 1.28 | 1.13 | 1.05 | 1.11 | 1.02 | 1.08 | 0.764 | 0.646 | 0.637 | 0.642 | 0.591 | 1.4
28 | ChaGo-K-1 | 0.262 | 0.261 | 0.269 | 0.298 | 0.832 | 0.862 | 0.838 | 0.816 | 0.969 | 0.982 | 0.861 | 0.94 | 0.891 | 0.647 | 0.606 | 0.605 | 0.533 | 0.59 | 0.978
